Experimental data published in patent publication US8030498B2, “Benzoylpyrazole compounds and herbicides containing them” (Ishihara Sangyo Kaisha, Ltd., priority 2005, dated 2011).

How the values were obtained:
[1] = system: crabgrass (Digitaria sanguinalis L.); assay: Test Example 1: foliar treatment, growth inhibition rate, crabgrass; format: in vivo; conditions: Digitaria sanguinalis, 31 g/ha active ingredient, visually observed 17th to 23rd day after application
From the text: (§1) Upland field soil was put into a 1/170,000 hectare pot, and seeds of various plants were sown. When the respective plants reached predetermined leaf stage ((1) barnyardgrass (Echinochloa crus-galli L.); 0.8 to 2.5 leaf stage, (2) crabgrass (Digitaria sanguinalis L.): 0.5 to 3.0 leaf stage, (3) greenfoxtail (Setaria viridis L.): 1.0 to 3.0 leaf stage, (4) redroot pigweed (Amaranthus retroflexus L.): cotyledon stage to 2.0 leaf stage, (5) prickly sida (Sida spinosa L.): cotyledon stage to 1.1 leaf stage, (6) velvetleaf (Abutilon theophrasti MEDIC.): cotyledon stage to 1.5 leaf stage, (7) rice (Oryza sativa L.): 1.0 to 2.5 leaf stage, (8) wheat (Triticum spp.): 1.7 to 3.4 leaf stage, (9) corn (Zea mays L.): 2.0 to 3.5 leaf stage, and (10) soybean (Glycine max Merr.): primary leaf stage to 0.3 leaf stage), wettable powders or emulsifiable concentrates of the compounds of the present invention prepared in accordance with a conventional preparation method, were weighed so that the active ingredients became the prescribed amounts, and diluted with water in an amount corresponding to 500 liter per 1 hectare. 0.1 vol % of an agricultural spreader was further added to the respective diluted liquids, followed by foliar treatment with a small sprayer.
(§2) On the 17th to 23rd day after application, the state of growth of the respective plants was visually observed, and the herbicidal effect was evaluated in accordance with a growth inhibition rate (%) of 0 (equivalent to the non-treated area) to 100% (complete kill).

corn (Zea mays L.) = assay: Test Example 1: foliar treatment, growth inhibition rate, corn; format: in vivo; conditions: Zea mays, 31 g/ha active ingredient, visually observed 17th to 23rd day after application
From the text: as §1, §2

crabgrass = assay: Test Example 2: soil application on the day after sowing, growth inhibition rate, crabgrass; format: in vivo, Digitaria sanguinalis L.; conditions: Digitaria sanguinalis, 250 g/ha active ingredient, observed on 19th to 24th day
From the text: (§3) Upland field soil was put into a 1/170,000 hectare pot, and seeds of various plants (barnyardgrass, crabgrass, greenfoxtail, redroot pigweed, prickly sida, velvetleaf, rice, wheat, corn and soybean) were sown. On the day after sowing, wettable powders or emulsifiable concentrates of the compounds of the present invention prepared in accordance with a conventional preparation method, were weighed so that the active ingredients became the prescribed amounts, and diluted with water in an amount corresponding to 500 liter per 1 hectare, followed by soil application with a small sprayer. On the 19th to 24th day after the application, the state of growth of the respective plants was visually observed, and the herbicidal effect was evaluated in accordance with a growth inhibition rate (%) of from 0 (equivalent to the non-treated area) to 100% (complete kill).

[2] = system: redroot pigweed (Amaranthus retroflexus L.); assay: Test Example 1: foliar treatment, growth inhibition rate, redroot pigweed; format: in vivo; conditions: 31 g/ha active ingredient, visually observed 17th to 23rd day after application
From the text: as §1, §2

redroot pigweed = assay: Test Example 2: soil application on the day after sowing, growth inhibition rate, redroot pigweed; format: in vivo, Amaranthus retroflexus L.; conditions: Amaranthus retroflexus, 250 g/ha active ingredient, observed on 19th to 24th day
From the text: as §3

[3] = system: velvetleaf (Abutilon theophrasti MEDIC.); assay: Test Example 1: foliar treatment, growth inhibition rate, velvetleaf; format: in vivo; conditions: Abutilon theophrasti, 31 g/ha active ingredient, visually observed 17th to 23rd day after application
From the text: as §1, §2

[4] = system: barnyardgrass (Echinochloa crus-galli L.); assay: Test Example 1: foliar treatment, growth inhibition rate, barnyardgrass; format: in vivo; conditions: Echinochloa crus-galli, 31 g/ha active ingredient, visually observed 17th to 23rd day after application
From the text: as §1, §2

rice = assay: Test Example 2: soil application on the day after sowing, growth inhibition rate, rice; format: in vivo, Oryza sativa L.; conditions: Oryza sativa, 250 g/ha active ingredient, observed on 19th to 24th day
From the text: as §3

velvetleaf = assay: Test Example 2: soil application on the day after sowing, growth inhibition rate, velvetleaf; format: in vivo, Abutilon theophrasti MEDIC.; conditions: Abutilon theophrasti, 250 g/ha active ingredient, observed on 19th to 24th day
From the text: as §3

rice (Oryza sativa L.) = assay: Test Example 1: foliar treatment, growth inhibition rate, rice; format: in vivo; conditions: Oryza sativa, 31 g/ha active ingredient, visually observed 17th to 23rd day after application
From the text: as §1, §2

[5] = system: prickly sida (Sida spinosa L.); assay: Test Example 1: foliar treatment, growth inhibition rate, prickly sida; format: in vivo; conditions: 31 g/ha active ingredient, visually observed 17th to 23rd day after application
From the text: as §1, §2

barnyardgrass = assay: Test Example 2: soil application on the day after sowing, growth inhibition rate, barnyardgrass; format: in vivo, Echinochloa crus-galli L.; conditions: Echinochloa crus-galli, 250 g/ha active ingredient, observed on 19th to 24th day
From the text: as §3

corn = assay: Test Example 2: soil application on the day after sowing, growth inhibition rate, corn; format: in vivo, Zea mays L.; conditions: Zea mays, 250 g/ha active ingredient, observed on 19th to 24th day
From the text: as §3

wheat = assay: Test Example 2: soil application on the day after sowing, growth inhibition rate, wheat; format: in vivo, Triticum spp.; conditions: Triticum aestivum, 250 g/ha active ingredient, observed on 19th to 24th day
From the text: as §3

prickly sida = assay: Test Example 2: soil application on the day after sowing, growth inhibition rate, prickly sida; format: in vivo, Sida spinosa L.; conditions: Sida spinosa, 250 g/ha active ingredient, observed on 19th to 24th day
From the text: as §3

greenfoxtail = assay: Test Example 2: soil application on the day after sowing, growth inhibition rate, greenfoxtail; format: in vivo, Setaria viridis L.; conditions: Setaria viridis, 250 g/ha active ingredient, observed on 19th to 24th day
From the text: as §3

[6] = system: greenfoxtail (Setaria viridis L.); assay: Test Example 1: foliar treatment, growth inhibition rate, greenfoxtail; format: in vivo; conditions: Setaria viridis, 31 g/ha active ingredient, visually observed 17th to 23rd day after application
From the text: as §1, §2

wheat (Triticum spp.) = assay: Test Example 1: foliar treatment, growth inhibition rate, wheat; format: in vivo; conditions: Triticum, 31 g/ha active ingredient, visually observed 17th to 23rd day after application
From the text: as §1, §2

[7] = system: soybean (Glycine max Merr.); assay: Test Example 1: foliar treatment, growth inhibition rate, soybean; format: in vivo; conditions: 31 g/ha active ingredient, visually observed 17th to 23rd day after application
From the text: as §1, §2

Question: `CCSC(=O)Oc1c(C(=O)c2ccc(S(C)(=O)=O)c(C(=O)OC)c2C)cnn1CC` [Compound No. 2, 1-ethyl-5-(ethylthio)carbonyloxypyrazol-4-yl 3-(methoxycarbonyl)-2-methyl-4-(methylsulfonyl)phenyl ketone] was tested. Which pest or weed control at 31 g/ha [1] did it give?
Answer: 90%

Question: What about the pest or weed control at 31 g/ha (corn (Zea mays L.)) of the same compound?
Answer: 10%

Question: And the inhibition at 250 g/ha (crabgrass)?
Answer: 100%

Question: And the “Growth inhibition rate (%) redroot pigweed” value [2]?
Answer: 95%

Question: What about the inhibition at 250 g/ha (redroot pigweed) of the same compound?
Answer: 100%

Question: What about the pest or weed control at 31 g/ha [3] of the same compound?
Answer: 95%

Question: And the pest or weed control at 31 g/ha [4]?
Answer: 95%

Question: And the inhibition at 250 g/ha (rice)?
Answer: 100%

Question: What about the inhibition at 250 g/ha (velvetleaf) of the same compound?
Answer: 60%

Question: What about the pest or weed control at 31 g/ha (rice (Oryza sativa L.)) of the same compound?
Answer: 95%

Question: And the “Growth inhibition rate (%) Prickly sida” value [5]?
Answer: 95%

Question: What about the inhibition at 250 g/ha (barnyardgrass) of the same compound?
Answer: 100%

Question: What about the inhibition at 250 g/ha (corn) of the same compound?
Answer: 0%

Question: And the inhibition at 250 g/ha (wheat)?
Answer: 40%

Question: What about the inhibition at 250 g/ha (prickly sida) of the same compound?
Answer: 95%

Question: And the inhibition at 250 g/ha (greenfoxtail)?
Answer: 98%

Question: And the pest or weed control at 31 g/ha [6]?
Answer: 100%

Question: What about the pest or weed control at 31 g/ha (wheat (Triticum spp.)) of the same compound?
Answer: 30%

Question: Which results are given for `CCSC(=O)Oc1c(C(=O)c2ccc(S(C)(=O)=O)c(OCCOC)c2C)cnn1CC` [Compound No. 16, 5-(ethylthio)carbonyloxy-1-ethylpyrazol-4-yl 3-(2-methoxyethoxy)-2-methyl-4-(methylsulfonyl)phenyl ketone]?
Answer: pest or weed control at 31 g/ha [1]: 100%; pest or weed control at 31 g/ha (corn (Zea mays L.)): 0%; inhibition at 250 g/ha (crabgrass): 100%; Growth inhibition rate (%) Soybean [7]: 95%; inhibition at 250 g/ha (redroot pigweed): 100%; pest or weed control at 31 g/ha [3]: 100%; pest or weed control at 31 g/ha [4]: 100%; inhibition at 250 g/ha (rice): 98%; inhibition at 250 g/ha (velvetleaf): 0%; pest or weed control at 31 g/ha (rice (Oryza sativa L.)): 90%; Growth inhibition rate (%) Prickly sida [5]: 40%; inhibition at 250 g/ha (barnyardgrass): 100%; inhibition at 250 g/ha (corn): 0%; inhibition at 250 g/ha (wheat): 0%; inhibition at 250 g/ha (prickly sida): 10%; inhibition at 250 g/ha (greenfoxtail): 98%; pest or weed control at 31 g/ha [6]: 100%; pest or weed control at 31 g/ha (wheat (Triticum spp.)): 0%

Question: How did the pest or weed control at 31 g/ha [1] turn out when `CCSC(=O)Oc1c(C(=O)c2ccc(S(C)(=O)=O)c(OCC(OC)OC)c2C)cnn1C` [Compound No. 209, 5-(ethylthio)carbonyloxy-1-methylpyrazol-4-yl 3-(2,2-dimethoxyethoxy)-2-methyl-4-(methylsulfonyl)phenyl ketone] was run?
Answer: 95%

Question: And the pest or weed control at 31 g/ha (corn (Zea mays L.))?
Answer: 0%

Question: And the inhibition at 250 g/ha (crabgrass)?
Answer: 95%

Question: And the “Growth inhibition rate (%) Soybean” value [7]?
Answer: 100%

Question: And the “Growth inhibition rate (%) redroot pigweed” value [2]?
Answer: 98%

Question: And the inhibition at 250 g/ha (redroot pigweed)?
Answer: 95%

Question: And the pest or weed control at 31 g/ha [3]?
Answer: 100%

Question: And the pest or weed control at 31 g/ha [4]?
Answer: 100%

Question: And the inhibition at 250 g/ha (rice)?
Answer: 90%

Question: And the inhibition at 250 g/ha (velvetleaf)?
Answer: 50%

Question: And the pest or weed control at 31 g/ha (rice (Oryza sativa L.))?
Answer: 95%

Question: What about the “Growth inhibition rate (%) Prickly sida” value [5] of the same compound?
Answer: 90%

Question: And the inhibition at 250 g/ha (barnyardgrass)?
Answer: 95%

Question: And the inhibition at 250 g/ha (corn)?
Answer: 0%

Question: What about the inhibition at 250 g/ha (wheat) of the same compound?
Answer: 20%

Question: And the inhibition at 250 g/ha (prickly sida)?
Answer: 30%

Question: And the inhibition at 250 g/ha (greenfoxtail)?
Answer: 100%

Question: What about the pest or weed control at 31 g/ha [6] of the same compound?
Answer: 98%

Question: And the pest or weed control at 31 g/ha (wheat (Triticum spp.))?
Answer: 0%
